Measured values taken from patent publication US20180360799A1, “Nitrofuran Derivatives That Induce Apoptosis in Breast Cancer Cells by Activating Protein Expression” (Oklahoma Medical Research Foundation, priority 2015, published 2018).

Tests used:
Type in all cases: cell-based, human
CHOP protein = CHOP protein by Western blotting in HCC-1806 cells; conditions: 10 μM, significant increases between 4 h and 24 h
Description: (§1) FIG. 3B is an image showing CHOP mRNA expression levels after treatment with a 5-nitrofuran-2-amide derivative. Cells were treated with compound 3d (10 μM) for the indicated times, and CHOP protein levels were analyzed by Western blotting. α-Tubulin was used as a loading control. The data shown are representative of 3 independent studies.
HCC-1806 cells were seeded in 60-mm dishes at 8×10^5 cells/dish and treated for the indicated times. Cells were then washed with PBS and lysed with lysis buffer (Cell Signaling Technology, Danvers, Mass., US) containing EDTA and phosphatase inhibitors. Aliquots of 20 μg total protein were separated on 7% SDS-PAGE gels (Life Technologies, Carlsbad, Calif., US) and transferred to PVDF membranes. The membranes were probed with primary antibodies followed by the appropriate HRP-conjugated secondary antibodies (goat anti-rabbit IgG and goat anti-mouse IgG, 1:3000; Santa Cruz Biotechnology, Santa Cruz, Calif., US). Blots were then developed. The primary antibodies and dilutions used were: CHOP (1:1000 no. MA1-250; Thermo, IL, US), cleaved caspase 3 (1:1000 no. 9661; Cell Signaling Technology), ATF4 (1:1000 no. 10835-1-AP; ProteinTech Group, IL, US), p-eIF2α (Ser51) (1:1000 no. 9721; Cell Signaling Technology), and α-tubulin (1:2000 no. SC-8035; Santa Cruz Biotechnology).

ATF4 mRNA = ATF4 mRNA by qRT-PCR; conditions: 10 μM, indicated times
Text: Results are the means of 4 replicate wells and are representative of 3 independent studies. *P<0.05 by Student's t-test compared with DMSO-treated cells. Prolonged or severe ER stress activates CHOP expression primarily through the PERK branch of the unfolded protein response, although the IRE1α and ATF6 branches also contribute.^5, 18 The 5-nitrofuran-2-amide derivatives could induce CHOP expression by acting as an ER stressor that activates all three branches of unfolded protein response or by preferentially activating a select branch of unfolded protein response. To distinguish between these possibilities, the inventor investigated which branches of the unfolded protein response were affected by compound 3d. […] Total RNA was extracted using TRIzol reagent (Invitrogen, Carlsbad, Calif.) according to the manufacturer's protocol, and 2 μg of total RNA was reverse transcribed using a Superscript kit (Invitrogen). Real-time PCR was performed in 96-well format using SYBR Select Master Mix (Applied Biosystems, Foster City, Calif.) with an ABI 7500 PCR system (Applied Biosystems). The primer sequences used were: Human CHOP: SEQ ID NO: 1 [NT] and SEQ ID NO: 2 [NT]. Human ATF4: SEQ ID NO: 3 [NT] and SEQ ID NO: 4 [NT]. Human XBP1: SEQ ID NO: 5 [NT] and SEQ ID NO: 6 [NT]. Human Cyclophilin A: SEQ ID NO: 7 [NT] and SEQ ID NO: 8 [NT]. Human GAPDH: SEQ ID NO: 9 [NT] and SEQ ID NO: 10 [NT].

ATF4 protein = ATF4 protein by Western blotting; conditions: 10 μM, indicated times
Description: as §1, with “3D” for “3B”, “ATF4 and p-EIF2α protein” for “CHOP mRNA expression”, “derivative compound 3d.” for “derivative.”, “ATF4 and p-eIF2a” for “CHOP”
(§2) Prolonged or severe ER stress activates CHOP expression primarily through the PERK branch of the unfolded protein response, although the IRE1α and ATF6 branches also contribute.^5, 18 The 5-nitrofuran-2-amide derivatives could induce CHOP expression by acting as an ER stressor that activates all three branches of unfolded protein response or by preferentially activating a select branch of unfolded protein response. To distinguish between these possibilities, the inventor investigated which branches of the unfolded protein response were affected by compound 3d. Activation of the PERK pathway by ER stress leads to phosphorylation of eIF2α, followed by activation of the transcription and translation of the transcription factor ATF4, a 5′-upstream ORF-containing gene, and ATF4-mediated CHOP expression.^5, 22 To determine whether the PERK pathway is involved in compound 3d-mediated CHOP induction, ATF4 expression and eIF2a phosphorylation in HCC-1806 cells by qRT-PCR and Western blotting were analyzed. […]

p-eIF2α = experiment: eIF2α phosphorylation by Western blotting; conditions: 10 μM, indicated times
Description: as §1, with “3D” for “3B”, “ATF4 and p-EIF2α protein” for “CHOP mRNA expression”, “derivative compound 3d.” for “derivative.”, “ATF4 and p-eIF2a” for “CHOP”
as §2

[1] = test system: ER stress response elements (ERSE)-Luc reporter; experiment: ERSE-Luc reporter assay in HEK293 cells; conditions: 10 μM, 24 h
Description: FIG. 3G is a graph showing HEK293 cells stably expressing CHOP-Luc, ERSE-Luc, or UPRE-luc reporters were treated with DMSO, a 5-nitrofuran-2-amide derivative, or tunicamycin. HEK293 cells stably expressing CHOP-Luc, ERSE-Luc, or UPRE-luc reporters were treated with DMSO, compound 3d (10 μM), or Tm (1 μg/mL) for 24 h, and luciferase activity was measured using the Bright-Glo assay. Results are the means of 4 replicate wells and are representative of 3 independent experiments.
The inventor next asked whether the IRE1α and ATF6 branches of the unfolded protein response were also activated by compound 3d treatment of TNBC cells. […] XBP1 mRNA splicing, as measured by XBP1s levels, increased only slightly in the first 24 h after compound 3d treatment of HCC-1806 cells (from 11% of total XBP1 at 0 h to 15˜20% at 2˜24 h). […] Next, it was determined whether compound 3d activates the ATF6 pathway by evaluating its effect on the activity of an ER stress response elements (ERSE)-Luc reporter stably established in HEK293 cell line.
The HEK293T CHOP reporter cell line (CHOP-Luc) was previously described.^21 HEK293T cells were stably transfected with ERSE-Luciferase^25 and UPRE-Luciferase^23 reporters to generate ERSE-Luc and UPRE-Luc reporter cell lines, respectively. […] Luciferase activity was measured with a Bright-Glo kit 24 h later.

Which results are given for `CC1CCN(c2ccc(NC(=O)c3ccc([N+](=O)[O-])o3)cc2)CC1` [Compound 3d]?
CHOP protein levels (CHOP protein): increased CHOP protein levels; ATF4 expression, mRNA (ATF4 mRNA): significantly increased ATF4 expression; ATF4 expression, protein (ATF4 protein): significantly increased ATF4 expression; phosphorylation of eIF2α (p-eIF2α): substantially increased the phosphorylation of eIF2a; effect on ERSE-driven luciferase activity, in words [1]: no significant effect
